Experimental data published in ChEMBL document CHEMBL1255486, “Effect of vicriviroc on the QT/corrected QT interval and central nervous system in healthy subjects” (Antimicrob Agents Chemother, 2010).

Experiments:
Set-up in all cases: dose 400 mg/kg, route oral
Conditions in all cases: in vivo
[1] = system: Homo sapiens; test: Cardiotoxicity in healthy human assessed as change in corrected QT interval at 400 mg/kg, po within 12 hrs by ECG; type: toxicity, organism-based
[2] = system: Homo sapiens; test: Toxicity in healthy human assessed as dizziness at 400 mg/kg, po administered as single dose; type: organism-based
[3] = system: Homo sapiens; test: Toxicity in healthy human assessed as nausea at 400 […], po administered as single dose; type: organism-based
[4] = system: Homo sapiens; test: Toxicity in healthy human assessed as abdominal pain at 400 mg/kg, po administered as single dose; type: organism-based, Abdomen
[5] = system: Homo sapiens; test: Toxicity in healthy human assessed as diarrhea at 400 mg/kg, po administered as single dose; type: organism-based
[6] = system: Homo sapiens; test: Cardiotoxicity in healthy human assessed as change in corrected QT interval at 400 mg/kg, po within 3 hrs by ECG; type: toxicity, organism-based
[7] = system: Homo sapiens; test: Toxicity in healthy human assessed as headache at 400 […], po administered as single dose; type: organism-based

## COc1c(N2C[C@@H]3CCCN[C@@H]3C2)c(F)cc2c(=O)c(C(=O)O)cn(C3CC3)c12 [MOXIFLOXACIN]
[1]
  QTc change: 10 ms
[2]
  Activity: 0%
[3]
  Activity: 3%
[4]
  Activity: 5%
[5]
  Activity: 3%
[6]
  Activity: Non-toxic
[7]
  Activity: 5%
